The source made the active and inactive calls. The rule behind the calls is not given here.
Test system: GENE-TOX genotoxicity assays, various organisms and cells
Assay: GENE-TOX mutagenicity studies
[1] = Species/Cell Type: Mammalian polychromatic erythrocytes, Assay Type: Micronucleus test, chromosome aberrations, Assay Code: MNTT, Evaluation Type: Evaluation A (Pre-1980)
[2] = Species/Cell Type: Salmonella typhimurium (one or more of the five standard strains: TA98, TA100, TA1535, TA1537, and TA1538), Assay Type: Histidine reverse gene mutation, Ames assay, Assay Code: SALT, Evaluation Type: Evaluation A (Pre-1980)
[3] = Species/Cell Type: Salmonella typhimurium, Assay Type: Forward and reverse gene mutation, host-mediated assay, Assay Code: HMA-, Evaluation Type: Evaluation A (Pre-1980)
[4] = Species/Cell Type: Mammalian polychromatic erythrocytes, Assay Type: Micronucleus test, chromosome aberrations, Assay Code: MNT+, Evaluation Type: Evaluation B (Post-1980)
[5] = Species/Cell Type: Drosophila melanogaster, Assay Type: Sex-linked recessive lethal gene mutation, Assay Code: SRL+, Evaluation Type: Evaluation A (Pre-1980)
[6] = Species/Cell Type: Saccharomyces cerevisiae, Assay Type: Mitotic recombination or gene conversion, Assay Code: YEC+, Evaluation Type: Evaluation A (Pre-1980)
[7] = Species/Cell Type: Nonhuman, Assay Type: Sister-chromatid exchange (SCE) in vitro, Assay Code: SC2+, Evaluation Type: Evaluation B (Post-1980)
[8] = Species/Cell Type: Vicia faba, Assay Type: Chromosome aberrations, Assay Code: VIC+, Evaluation Type: Evaluation A (Pre-1980)
[9] = Species/Cell Type: Salmonella typhimurium (one or more of the five standard strains: TA98, TA100, TA1535, TA1537, and TA1538), Assay Type: Histidine reverse gene mutation, Ames assay, Assay Code: SAL+, Evaluation Type: Evaluation A (Pre-1980)
[10] = Species/Cell Type: Saccharomyces cerevisiae, Assay Type: Reverse gene mutation, Assay Code: YER+, Evaluation Type: Evaluation A (Pre-1980)
[11] = Species/Cell Type: Human lymphocytes, Assay Type: Sister-chromatid exchange (SCE) in vitro, Assay Code: SCL+, Evaluation Type: Evaluation B (Post-1980)

In the case of CN(C)CCCN1c2ccccc2Sc2ccccc21, the mutagenic call (Species/Cell Type: Nonhuman, Assay Type: Sister-chromatid exchange (SCE) in vitro, Assay Code: SC2+D, Dose Response: With dose response, Evaluation Type: Evaluation A (Pre-1980)) is reported as “active; positive”.

CN(C)CCc1c[nH]c2cccc(OP(=O)(O)O)c12 was tested, and the mutagenic call [1] was “no conclusion”.

In the case of Cc1cc2ccccc2c2ccc3c(F)cccc3c12, the mutagenic call [2] is reported as “no conclusion”.

With OC(CCl)CCl the mutagenic call (Species/Cell Type: Salmonella typhimurium (one or more of the five standard strains: TA98, TA100, TA1535, TA1537, and TA1538), Assay Type: Histidine reverse gene mutation, Ames assay, Assay Code: SAL+*, Activation: With metabolic activation, Evaluation Type: Evaluation A (Pre-1980)) was “active; positive”.

For O=C(O)C1CCCCN1 (centres undefined), the mutagenic call [3] was “inactive; negative”.

With CCCCOCC1CO1 (centres undefined) the mutagenic call [4] was “active; positive”.

In the case of CN=C1CN(O)C(c2ccccc2)=c2cc(Cl)ccc2=N1, the mutagenic call [4] is reported as “active; positive”, the mutagenic call (Species/Cell Type: Saccharomyces cerevisiae, Assay Type: Mitotic recombination or gene conversion, Assay Code: YEC-*, Activation: With metabolic activation, Evaluation Type: Evaluation A (Pre-1980)) is reported as “inactive; negative” and the mutagenic call [2] is reported as “no conclusion”. The mutagenic call (Species/Cell Type: Salmonella typhimurium, Assay Type: Forward and reverse gene mutation, host-mediated assay, Assay Code: HMAT, Evaluation Type: Evaluation A (Pre-1980)) was “no conclusion”.

With O=NN(CCCl)C(=O)NCCNC(=O)N(CCCl)N=O the mutagenic call [5] was “active; positive” and the mutagenic call [6] was “active; positive”.

CCCN(CCC)c1c([N+](=O)[O-])cc(C(F)(F)F)cc1[N+](=O)[O-] was tested, and the mutagenic call (Species/Cell Type: Bacillus subtilis (H17 vs M45), Assay Type: Rec-assay, spot test, DNA effects (bacterial DNA repair), Assay Code: REWT, Evaluation Type: Evaluation A (Pre-1980)) was “no conclusion”, the mutagenic call (Species/Cell Type: Drosophila melanogaster, Assay Type: Sex-linked recessive lethal gene mutation, Assay Code: SRL-, Evaluation Type: Evaluation A (Pre-1980)) was “inactive; negative” and the mutagenic call (Species/Cell Type: Escherichia coli WP2 UVRA, Assay Type: Tryptophan reverse gene mutation, Assay Code: WPU-*, Activation: With metabolic activation, Evaluation Type: Evaluation A (Pre-1980)) was “inactive; negative”. For the same compound, the mutagenic call (Species/Cell Type: Escherichia coli polA (W3119 vs P3478), Assay Type: Rec-assay, DNA effects (bacterial DNA repair), Assay Code: RE1T, Evaluation Type: Evaluation A (Pre-1980)) was “no conclusion”, the mutagenic call (Species/Cell Type: Human diploid fibroblasts, Assay Type: Unscheduled DNA synthesis (UDS) in vitro, DNA effects, Assay Code: UDH-, Evaluation Type: Evaluation A (Pre-1980)) was “inactive; negative” and the mutagenic call (Species/Cell Type: Neurospora crassa, Assay Type: Aneuploidy, chromosome aberrations, Assay Code: NEN+, Evaluation Type: Evaluation A (Pre-1980)) was “active; positive”. The call (Species/Cell Type: Nonhuman, Assay Type: In vivo carcinogenicity studies, Assay Code: CCG+L, Evaluation Type: Evaluation A (Pre-1980)) was “active; positive”, the mutagenic call [7] was “active; positive” and the mutagenic call (Species/Cell Type: Saccharomyces cerevisiae, Assay Type: Mitotic recombination or gene conversion, Assay Code: YEH+/-*, Activation: With metabolic activation, Evaluation Type: Evaluation A (Pre-1980)) was “inactive; positive without activation, negative with activation”. For the same compound, the mutagenic call (Species/Cell Type: Salmonella typhimurium (one or more of the five standard strains: TA98, TA100, TA1535, TA1537, and TA1538), Assay Type: Histidine reverse gene mutation, Ames assay, Assay Code: SAL-, Evaluation Type: Evaluation A (Pre-1980)) was “inactive; negative” and the mutagenic call [8] was “active; positive”.

In the case of O=[N+]([O-])c1c(O)ccc2ccccc12, the mutagenic call [9] is reported as “active; positive”.

For O=[N+]([O-])c1ccc(N=Nc2c(O)ccc3ccccc23)c([N+](=O)[O-])c1, the mutagenic call [9] was “active; positive”.

In the case of CC(=O)OC(OC(C)=O)c1ccc([N+](=O)[O-])o1, the mutagenic call (Species/Cell Type: Escherichia coli WP2 UVRA, Assay Type: Tryptophan reverse gene mutation, Assay Code: WPU+, Evaluation Type: Evaluation A (Pre-1980)) is reported as “active; positive”, the mutagenic call [7] is reported as “active; positive” and the mutagenic call [9] is reported as “active; positive”.

[CH3][Hg][CH3] was tested, and the mutagenic call (Species/Cell Type: Mammalian oocytes or early embryo, Assay Type: Chromosome aberrations in vivo, Assay Code: CYO-, Evaluation Type: Evaluation A (Pre-1980)) was “inactive; negative” and the mutagenic call (Species/Cell Type: Rodents, Sex: Male, Assay Type: Dominant lethal test, Assay Code: DLTT, Evaluation Type: Evaluation A (Pre-1980)) was “no conclusion”.

O=C(O)COc1cc(Cl)c(Cl)cc1Cl was tested, and the mutagenic call (Species/Cell Type: Drosophila melanogaster, Assay Type: Aneuploidy, sex chromosome gain, chromosome aberrations, Assay Code: DAG-M-F, Evaluation Type: Evaluation A (Pre-1980)) was “inactive; negative”, the mutagenic call (Species/Cell Type: Drosophila melanogaster, Assay Type: Aneuploidy, whole sex chromosome loss, chromosome aberrations, Assay Code: DAC-M-F, Evaluation Type: Evaluation A (Pre-1980)) was “inactive; negative” and the mutagenic call [5] was “active; positive”. The mutagenic call (Species/Cell Type: Drosophila melanogaster, Assay Type: Sex-linked recessive lethal gene mutation, Assay Code: SRLT, Evaluation Type: Evaluation A (Pre-1980)) was “no conclusion”, the mutagenic call [1] was “no conclusion” and the mutagenic call (Species/Cell Type: Nonhuman bone marrow, Assay Type: Chromosome aberrations, in vivo, Assay Code: CY#+D, Dose Response: With dose response, Evaluation Type: Evaluation A (Pre-1980)) was “active; positive”. The mutagenic call [10] was “active; positive”, the mutagenic call (Species/Cell Type: Salmonella typhimurium, Serratia marcesens, Assay Type: Forward and reverse gene mutation, host-mediated assay, Assay Code: HM2T, Evaluation Type: Evaluation A (Pre-1980)) was “no conclusion” and the mutagenic call [8] was “active; positive”.

In the case of OCCN(CCO)c1nc(-c2cccs2)nc2ccccc12, the mutagenic call [2] is reported as “no conclusion”.

With CCN(CC)c1ccc2nc3ccc(N=Nc4ccc(N(C)C)cc4)cc3[n+](-c3ccccc3)c2c1 the mutagenic call (Species/Cell Type: Bacillus subtilis (H17 vs M45T), Assay Type: Rec-assay, spot test, DNA effects (bacterial DNA repair), Assay Code: REXT, Evaluation Type: Evaluation A (Pre-1980)) was “no conclusion”.

C/C=C/c1ccc(O)c(OC)c1 was tested, and the mutagenic call [11] was “active; positive”.

O=NO was tested, and the mutagenic call (Species/Cell Type: Arabidopsis species, Assay Type: Gene mutation, Assay Code: ARMT, Evaluation Type: Evaluation A (Pre-1980)) was “no conclusion”, the mutagenic call (Species/Cell Type: Aspergillus nidulans, Assay Type: Forward gene mutation, Assay Code: ASF+, Evaluation Type: Evaluation A (Pre-1980)) was “active; positive” and the mutagenic call [5] was “active; positive”. The mutagenic call (Species/Cell Type: Escherichia coli polA (W3119 vs P3478), Assay Type: Rec-assay, DNA effects (bacterial DNA repair), Assay Code: RE1+, Evaluation Type: Evaluation A (Pre-1980)) was “active; positive”, the mutagenic call [11] was “active; positive” and the mutagenic call (Species/Cell Type: Human, Assay Type: Sister-chromatid exchange (SCE) in vitro, Assay Code: SC1+, Evaluation Type: Evaluation B (Post-1980)) was “active; positive”. For the same compound, the mutagenic call (Species/Cell Type: Mammalian oocytes or early embryo, Assay Type: Chromosome aberrations in vivo, Assay Code: CYO+, Evaluation Type: Evaluation A (Pre-1980)) was “active; positive”, the mutagenic call [4] was “active; positive” and the mutagenic call [1] was “no conclusion”. The mutagenic call (Species/Cell Type: Mouse, Sex: Male, Assay Type: Heritable translocation test, chromosome aberrations, Assay Code: HTTT, Evaluation Type: Evaluation A (Pre-1980)) was “no conclusion”, the mutagenic call (Species/Cell Type: Neurospora crassa, Assay Type: Forward gene mutation, Assay Code: NEF+, Evaluation Type: Evaluation A (Pre-1980)) was “active; positive” and the mutagenic call (Species/Cell Type: Neurospora crassa, Assay Type: Reverse gene mutation, Assay Code: NER+, Evaluation Type: Evaluation A (Pre-1980)) was “active; positive”. For the same compound, the mutagenic call (Species/Cell Type: Nonhuman, Assay Type: Chromosome aberrations in vitro, Assay Code: CY&+D, Dose Response: With dose response, Evaluation Type: Evaluation A (Pre-1980)) was “active; positive”, the mutagenic call (Species/Cell Type: Nonhuman, Assay Type: Sister-chromatid exchange (SCE) in vitro, Assay Code: SC2+, Evaluation Type: Evaluation A (Pre-1980)) was “active; positive” and the mutagenic call (Species/Cell Type: Nonhuman, Assay Type: Sister-chromatid exchange (SCE) in vivo, Assay Code: SC3T, Evaluation Type: Evaluation B (Post-1980)) was “no conclusion”. For the same compound, the mutagenic call (Species/Cell Type: Rodents, Sex: Male, Assay Type: Dominant lethal test, Assay Code: DLT-, Evaluation Type: Evaluation A (Pre-1980)) was “inactive; negative”, the mutagenic call (Species/Cell Type: Saccharomyces cerevisiae, Assay Type: Forward gene mutation, Assay Code: YEF+, Evaluation Type: Evaluation A (Pre-1980)) was “active; positive” and the mutagenic call [6] was “active; positive”. For the same compound, the mutagenic call (Species/Cell Type: Saccharomyces cerevisiae, Assay Type: Mitotic recombination or gene conversion, Assay Code: YEH+, Evaluation Type: Evaluation A (Pre-1980)) was “active; positive”, the mutagenic call [10] was “active; positive” and the mutagenic call [9] was “active; positive”. The mutagenic call [3] was “inactive; negative”, the mutagenic call (Species/Cell Type: Schizosaccharomyces pombe, Assay Type: Forward gene mutation, Assay Code: YEY+, Evaluation Type: Evaluation A (Pre-1980)) was “active; positive” and the mutagenic call (Species/Cell Type: Schizosaccharomyces pombe, Assay Type: Reverse gene mutation, Assay Code: YEZ+, Evaluation Type: Evaluation A (Pre-1980)) was “active; positive”. For the same compound, the mutagenic call (Species/Cell Type: Syrian hamster embryo (SHE) cells, Assay Type: Cell transformation, clonal assay, Assay Code: CTC+, Evaluation Type: Evaluation A (Pre-1980)) was “active; positive”.

For C/C(O)=C1/C(=O)[C@@H]2[C@H]3c4c[nH]c5cccc(c45)C[C@H]3C(C)(C)N2C1=O, the mutagenic call [2] was “no conclusion”.

With CCCCOC(=O)C=[N+]=[N-] the mutagenic call (Species/Cell Type: Arabidopsis species, Assay Type: Gene mutation, Assay Code: ARM+, Evaluation Type: Evaluation A (Pre-1980)) was “active; positive”.

— PubChem BioAssay AID1259408 (Genetic Toxicology Data Bank (GENE-TOX), 2018)
